Measured values reported in patent publication US20260356817A1, “AMINOPYRIMIDINE AND AMINOTRIAZINE DERIVATIVES AS MYC PROTEIN MODULATORS” (Sanford Burnham Prebys Medical Discovery Institute, priority 2022, published 2026).
Where two headings read alike, the source gives them in different places.

System: Myc
Test: Myc inhibition assay: Myc expression per cell by anti-Myc immunofluorescence, high-content imaging
Assay type: cell-based, human (patient-derived medulloblastoma xenograft cells)
Settings: medulloblastoma PDX cells, 4 h
In short: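 Cells from Myc-driven medulloblastoma patient-derived orthotopic xenografts, propagated only in NSG mouse cerebellum, were dissociated and plated in serum-free medium. After overnight recovery, compounds were applied for 4 hours; cells were then fixed, stained for Myc and DAPI, and per-cell Myc quantified by high-content imaging to derive IC50.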

[1] = Table 1, read-out: IC50 (Myc inhibition)
[2] = Table 2, read-out: MYC Inhibition IC50

IC50 [1] [nM] | IC50 [2] [nM] | SMILES
10000 to 100000 | 10000 to 100000 | Oc1cc(Nc2ccnc(Nc3cccc(F)c3)n2)ccn1 [Compound 118, 4-((2-((3-fluorophenyl)amino)pyrimidin-4-yl)amino)pyridin-2-ol]
< 200 | < 200 | Nc1ncc(-c2ccnc(Nc3cccc(C(F)(F)F)c3)n2)s1 [Compound 119, 5-(2-((3-(Trifluoromethyl)phenyl)amino)pyrimidin-4-yl)thiazol-2-amine]
1000 to 10000 | 1000 to 10000 | NCCOc1cccc(Nc2nccc(-c3ccnc(O)c3)n2)c1 [Compound 120, 4-(2-((3-(2-aminoethoxy)phenyl)amino)pyrimidin-4-yl)pyridin-2-ol]
1000 to 10000 | 1000 to 10000 | COc1cc(-c2ccnc(Nc3cccc(OCCN)c3)n2)ccn1 [Compound 121, N-(3-(2-aminoethoxy)phenyl)-4-(2-methoxypyridin-4-yl)pyrimidin-2-amine]
1000 to 10000 | 1000 to 10000 | COc1cc(Nc2ccnc(Nc3cccc(F)c3)n2)ccn1 [Compound 122, N^2-(3-fluorophenyl)-N^4-(2-methoxypyridin-4-yl)pyrimidine-2,4-diamine]
10000 to 100000 | 10000 to 100000 | Oc1ccc(Nc2ccnc(Nc3cccc(F)c3)n2)cn1 [Compound 123, 5-((2-((3-fluorophenyl)amino)pyrimidin-4-yl)amino)pyridin-2-ol]
10000 to 100000 | 10000 to 100000 | COc1ccc(Oc2ccnc(Nc3cccc(F)c3)n2)cn1 [Compound 124]
1000 to 10000 | 1000 to 10000 | Cc1c(-c2ccnc(Nc3cccc(C(F)(F)F)c3)n2)ccc2[nH]cnc12 [Compound 125, 4-(4-methyl-1H-benzo[d]imidazol-5-yl)-N-(3-(trifluoromethyl)phenyl)pyrimidin-2-amine]
200 to 1000 | 200 to 1000 | Fc1cc2[nH]cnc2cc1-c1ccnc(Nc2cccc(C(F)(F)F)c2)n1 [Compound 126, 4-(6-fluoro-1H-benzo[d]imidazol-5-yl)-N-(3-(trifluoromethyl)phenyl)pyrimidin-2-amine]
200 to 1000 | 200 to 1000 | FC(F)(F)c1cccc(Nc2nccc(-c3ccc4nccn4c3)n2)c1 [Compound 127, 4-(Imidazo[1,2-a]pyridin-6-yl)-N-(3-(trifluoromethyl)phenyl)pyrimidin-2-amine]
1000 to 10000 | 1000 to 10000 | OCCOc1cccc(Nc2nccc(-c3ccnc(O)c3)n2)c1 [Compound 128, 4-(2-((3-(2-hydroxyethoxy)phenyl)amino)pyrimidin-4-yl)pyridin-2-ol]
1000 to 10000 | 1000 to 10000 | COc1cc(-c2ccnc(Nc3cccc(OCCO)c3)n2)ccn1 [Compound 129, 2-(3-((4-(2-methoxypyridin-4-yl)pyrimidin-2-yl)amino)phenoxy)ethan-1-ol]
200 to 1000 | 200 to 1000 | Oc1ccc(-c2ccnc(Nc3cccc(C(F)(F)F)c3)n2)cc1 [Compound 130, 4-(2-((3-(Trifluoromethyl)phenyl)amino)pyrimidin-4-yl)phenol]
1000 to 10000 | 1000 to 10000 | Oc1cc(-c2ccnc(Nc3cccc(C(F)(F)F)c3)n2)ncn1 [Compound 131, 2′-((3-(trifluoromethyl)phenyl)amino)-[4,4′-bipyrimidin]-6-ol]
200 to 1000 | 200 to 1000 | FC(F)(F)c1cccc(Nc2nccc(-c3cnc4cc[nH]c4c3)n2)c1 [Compound 132, 4-(1H-pyrrolo[3,2-b]pyridin-6-yl)-N-(3-(trifluoromethyl)phenyl)pyrimidin-2-amine]
< 200 | < 200 | CCCc1cccc(Nc2nccc(-c3cnc4nc[nH]c4c3)n2)c1 [Compound 133, 4-(1H-imidazo[4,5-b]pyridin-6-yl)-N-(3-propylphenyl)pyrimidin-2-amine]
< 200 | < 200 | CC(C)c1cccc(Nc2nccc(-c3cnc4nc[nH]c4c3)n2)c1 [Compound 134, 4-(1H-imidazo[4,5-b]pyridin-6-yl)-N-(3-isopropylphenyl)pyrimidin-2-amine]
< 200 | < 200 | Cc1cc(Nc2nccc(-c3cnc4nc[nH]c4c3)n2)ccc1F [Compound 135, N-(4-fluoro-3-methylphenyl)-4-(1H-imidazo[4,5-b]pyridin-6-yl)pyrimidin-2-amine]
< 200 | < 200 | Cc1cccc(Nc2nccc(-c3cnc4nc[nH]c4c3)n2)c1 [Compound 136, 4-(1H-imidazo[4,5-b]pyridin-6-yl)-N-(m-tolyl)pyrimidin-2-amine]
1000 to 10000 | 1000 to 10000 | Fc1cccc(Nc2nccc(-c3ccc4[nH]nnc4c3)n2)c1 [Compound 138, 4-(1H-benzo[d][1,2,3]triazol-5-yl)-N-(3-fluorophenyl)pyrimidin-2-amine]
200 to 1000 | 200 to 1000 | FC(F)(F)c1cccc(Nc2nccc(-c3ccc4[nH]nnc4c3)n2)c1 [Compound 139, 4-(1H-Benzo[d][1,2,3]triazol-5-yl)-N-(3-(trifluoromethyl)phenyl)pyrimidin-2-amine]

IC50 [1] [nM] | IC50 [2] [nM] | SMILES
< 200 | < 200 | CCc1cccc(Nc2nccc(-c3cnc4nc[nH]c4c3)n2)c1 [Compound 140, N-(3-ethylphenyl)-4-(1H-imidazo[4,5-b]pyridin-6-yl)pyrimidin-2-amine]
< 200 | < 200 | Clc1cccc(Nc2nccc(-c3cnc4nc[nH]c4c3)n2)c1 [Compound 141, N-(3-chlorophenyl)-4-(1H-imidazo[4,5-b]pyridin-6-yl)pyrimidin-2-amine]
200 to 1000 | 200 to 1000 | Cc1nc2ccc(-c3ccnc(Nc4cccc(C(F)(F)F)c4)n3)cc2[nH]1 [Compound 142, 4-(2-Methyl-1H-benzo[d]imidazol-6-yl)-N-(3-(trifluoromethyl)phenyl)pyrimidin-2-amine]
200 to 1000 | 200 to 1000 | COc1ncc(-c2ccnc(Nc3cccc(C(F)(F)F)c3)n2)s1 [Compound 143, 4-(2-methoxythiazol-5-yl)-N-(3-(trifluoromethyl)phenyl)pyrimidin-2-amine]
200 to 1000 | 200 to 1000 | Oc1ncc(-c2ccnc(Nc3cccc(C(F)(F)F)c3)n2)s1 [Compound 144, 5-(2-((3-(trifluoromethyl)phenyl)amino)pyrimidin-4-yl)thiazol-2-ol]
1000 to 10000 | 1000 to 10000 | Oc1cc(-c2ccnc(Nc3cncc(F)c3)n2)ccn1 [Compound 145, 4-(2-((5-fluoropyridin-3-yl)amino)pyrimidin-4-yl)pyridin-2-ol]
1000 to 10000 | 1000 to 10000 | COc1cc(-c2ccnc(Nc3cncc(F)c3)n2)ccn1 [Compound 146, N-(5-fluoropyridin-3-yl)-4-(2-methoxypyridin-4-yl)pyrimidin-2-amine]
1000 to 10000 | 1000 to 10000 | Oc1cc(-c2ccnc(Nc3cc(F)cc(F)c3)n2)ccn1 [Compound 147, 4-(2-((3,5-difluorophenyl)amino)pyrimidin-4-yl)pyridin-2-ol]
1000 to 10000 | 1000 to 10000 | COc1cc(-c2ccnc(Nc3cc(F)cc(F)c3)n2)ccn1 [Compound 148, N-(3,5-difluorophenyl)-4-(2-methoxypyridin-4-yl)pyrimidin-2-amine]
200 to 1000 | 200 to 1000 | CC(C)(C)c1cccc(Nc2nccc(-c3ccnc(O)c3)n2)c1 [Compound 149, 4-(2-((3-(tert-butyl)phenyl)amino)pyrimidin-4-yl)pyridin-2-ol]
1000 to 10000 | 1000 to 10000 | COc1cc(-c2ccnc(Nc3cccc(C(C)(C)C)c3)n2)ccn1 [Compound 150, N-(3-(tert-butyl)phenyl)-4-(2-methoxypyridin-4-yl)pyrimidin-2-amine]
< 200 | < 200 | Fc1cccc(Nc2nccc(-c3cnc4nc[nH]c4c3)n2)c1 [Compound 151, N-(3-fluorophenyl)-4-(1H-imidazo[4,5-b]pyridin-6-yl)pyrimidin-2-amine]
1000 to 10000 | 1000 to 10000 | FC(F)(F)c1cccc(Nc2nccc(-c3ccc4[nH]ccc4c3)n2)c1 [Compound 152, 4-(1H-indol-5-yl)-N-(3-(trifluoromethyl)phenyl)pyrimidin-2-amine]
1000 to 10000 | 1000 to 10000 | Fc1cccc(Nc2nccc(-c3ccc4[nH]ccc4c3)n2)c1 [Compound 153, N-(3-fluorophenyl)-4-(1H-indol-5-yl)pyrimidin-2-amine]
200 to 1000 | 200 to 1000 | Oc1cc(-c2ccnc(Nc3cncc(C(F)(F)F)c3)n2)ccn1 [Compound 154, 4-(2-((5-(trifluoromethyl)pyridin-3-yl)amino)pyrimidin-4-yl)pyridin-2-ol]
10000 to 100000 | 10000 to 100000 | COc1cc(-c2ccnc(Nc3cncc(C(F)(F)F)c3)n2)ccn1 [Compound 155, 4-(2-methoxypyridin-4-yl)-N-(5-(trifluoromethyl)pyridin-3-yl)pyrimidin-2-amine]
10000 to 100000 | 10000 to 100000 | Oc1cc(-c2ccnc(Nc3ccnc(C(F)(F)F)c3)n2)ccn1 [Compound 156, 4-(2-((2-(trifluoromethyl)pyridin-4-yl)amino)pyrimidin-4-yl)pyridin-2-ol]
10000 to 100000 | 10000 to 100000 | COc1cc(-c2ccnc(Nc3ccnc(C(F)(F)F)c3)n2)ccn1 [Compound 157, 4-(2-methoxypyridin-4-yl)-N-(2-(trifluoromethyl)pyridin-4-yl)pyrimidin-2-amine]
10000 to 100000 | 10000 to 100000 | Oc1cc(-c2ccnc(Nc3cc(C(F)(F)F)ccn3)n2)ccn1 [Compound 158, 4-(2-((4-(trifluoromethyl)pyridin-2-yl)amino)pyrimidin-4-yl)pyridin-2-ol]
200 to 1000 | 200 to 1000 | Cc1cccc(Nc2nccc(-c3ccnc(O)c3)n2)c1 [Compound 159, 4-(2-(m-tolylamino)pyrimidin-4-yl)pyridin-2-ol]
1000 to 10000 | 1000 to 10000 | COc1cc(-c2ccnc(Nc3cccc(C)c3)n2)ccn1 [Compound 160, 4-(2-methoxypyridin-4-yl)-N-(m-tolyl)pyrimidin-2-amine]
